# Experiments:
# [1] = system: Staphylococcus aureus ATCC29213; assay: Minimum Inhibitory Concentration (MIC) testing, broth microdilution, Staphylococcus aureus; format: cell-based; settings: Staphylococcus aureus ATCC29213; for MIC: read-out: Staphylococcus aureus MICs Activity
# Description: (§1) Compounds of this invention were tested for antimicrobial activity by susceptibility testing in liquid media. MICs for compounds against each strain were determined by a broth microdilution method according to the National Committee for Clinical Laboratory Standards (NCCLS) guidelines. (NCCLS. 2000. Methods for dilution antimicrobial susceptibility tests for bacteria that grow aerobically—fifth edition. Approved standard M7-A5. NCCLS, Wayne, Pa.)
# (§2) Briefly, test compounds are prepared in 100 μl of 1.6% DMSO solution in multiwell plates. Several bacterial colonies from a freshly streaked plate are transferred to an appropriate rich broth, such as Mueller Hinton. The cell suspension is adjusted to an optical density of 0.09 and further diluted 1:100 with warm 2× broth. This cell suspension is dispensed into the wells containing compound solution so that the final volume is 200 μl. The plates are incubated overnight (16-20 hours) at 37° C. and turbidity is scored by eye and quantified spectrophotometrically. The MIC is defined as the lowest concentration inhibiting visible growth.
# Some of the compounds of the Examples were also tested for activity against the pathogenic organism Staphylococcus aureus ATCC29213. […] Activities were again scored as ‘A’ if the MIC was ≦8 micrograms/ml, ‘B’ if the MIC was 16 to 64 micrograms/ml and ‘C’ if the MIC was greater than 64 micrograms/ml.
# Bacillus subtilis 168CA = assay: Minimum Inhibitory Concentration (MIC) testing, broth microdilution, Bacillus subtilis; format: cell-based; settings: Bacillus subtilis 168CA; for MIC: read-out: Bacillus subtilis MICs Activity
# Description: as §1, §2
# Activities were scored as ‘A’ if the MIC was ≦8 micrograms/ml, ‘B’ if the MIC was 16 to 64 micrograms/ml and ‘C’ if the MIC was greater than 64 micrograms/ml.
MIC [1] [µg/mL],MIC (Bacillus subtilis 168CA) [µg/mL],Compound,Staphylococcus aureus MICs Activity [1],Bacillus subtilis MICs Activity (Bacillus subtilis 168CA)
< 8,< 8,"Cc1oc(-c2ccc(Cl)cc2)nc1COc1ccc(F)c(C(N)=O)c1F [Example 297, 3-[2-(4-Chloro-phenyl)-5-methyl-oxazol-4-ylmethoxy]-2,6-difluoro-benzamide]",,
< 8,< 8,"COC(=O)c1sc(COc2ccc(F)c(C(N)=O)c2F)nc1-c1ccc(OC)cc1 [Example 313, 2-(3-Carbamoyl-2,4-difluoro-phenoxymethyl)-4-(4-methoxy-phenyl)-thiazole-5-carboxylic acid methyl ester]",,
> 64,> 64,"CCCCCOCCOc1cccc(C(N)=O)c1 [Example 53, 3-[2-(Pentyloxy)ethoxy]benzenecarboxamide]",,
16 to 64,16 to 64,"NC(=O)c1ccnc(OCc2nc(-c3ccc(Cl)cc3)cs2)c1 [Example 275, 2-[4-(4-Chloro-phenyl)-thiazol-2-ylmethoxy]-isonicotinamide]",,
< 8,< 8,"N#Cc1ccc(-c2csc(COc3ccc(F)c(C(N)=O)c3F)n2)cc1 [Example 276, 3-[4-(4-Cyano-phenyl)-thiazol-2-ylmethoxy]-2,6-difluoro-benzamide]",,
> 64,> 64,"NC(=O)c1cccc(OCC(=O)OC2CCCCC2)c1 [Example 27, Cyclohexyl 2-[3-(aminocarbonyl)phenoxy]acetate]",,
> 64,< 8,"NC(=O)c1cccc(OCCC2CCCCCC2)c1 [Example 28, 3-(2-Cycloheptylethoxy)benzenecarboxamide]",,
< 8,< 8,"COc1ccc(-c2csc(COc3ccc(F)c(C(N)=O)c3F)n2)cc1 [Example 105, 3-[4-(4-Methoxyphenyl)thiazol-2-ylmethoxy]-2,6-difluoro-benzamide]",,
16 to 64,< 8,"NC(=O)c1c(F)ccc(OCc2cc3ccccc3o2)c1F [Example 207, 3-(1-Benzofuran-2-ylmethoxy)-2,6-difluorobenzenecarboxamide]",,
< 8,< 8,"NC(=O)c1c(F)ccc(OCc2coc(-c3ccccc3)n2)c1F [Example 132, 2,6-Difluoro-3-(2-phenyl-oxazol-4-ylmethoxy)-benzamide]",,
16 to 64,16 to 64,"NC(=O)c1c(F)ccc(OCc2csc(Nc3ccccc3)n2)c1F [Example 237, 3-[(2-Anilino-1,3-thiazol-4-yl)methoxy]-2,6-difluorobenzenecarboxamide]",,
< 8,< 8,"COc1ccc(-c2nc(COc3ccc(F)c(C(N)=O)c3F)sc2-c2cccc(O)c2)cc1 [Example 278, 2,6-Difluoro-3-[5-(3-hydroxy-phenyl)-4-(4-methoxy-phenyl)-thiazol-2-ylmethoxy]-benzamide]",,
16 to 64,16 to 64,"CCC(C)CCOc1cccc(C(N)=O)c1 (stereo not shown) [Example 60, 3-[(3-Methylpentyl)oxy]benzenecarboxamide]",,
< 8,< 8,"NC(=O)c1c(F)ccc(OCc2nc(-c3ccc(F)cc3)cs2)c1F [Example 318, 2,6-Difluoro-3-[4-(4-fluoro-phenyl)-thiazol-2-ylmethoxy]-benzamide]",,
< 8,< 8,"CC(C)c1ccc(-c2noc(COc3ccc(F)c(C(N)=O)c3F)n2)cc1 [Example 248, 2,6-Difluoro-3-[3-(4-isopropylphenyl)-1,2,4-oxadiazol-5-yl]methoxybenzenecarboxamide]",,
16 to 64,16 to 64,"CCCCCC#CCOc1cccc(C(N)=O)c1 [Example 31, 3-(2-Octynyloxy)benzenecarboxamide]",,
< 8,< 8,"NC(=O)c1c(F)ccc(OCc2nc3cc([N+](=O)[O-])ccc3s2)c1F [Example 117, 2,6-Difluoro-3-(5-nitro-benzothiazol-2-ylmethoxy)-benzamide]",,
16 to 64,< 8,"NC(=O)c1c(F)ccc(OCc2cccc(Cl)c2)c1F [Example 331, 3-(3-Chloro-benzyloxy)-2,6-difluoro-benzamide]",,
16 to 64,16 to 64,"NC(=O)c1c(F)ccc(OCc2noc(-c3cccs3)n2)c1F [Example 134, 2,6-Difluoro-3-(5-thiophen-2-yl-[1,2,4]oxadiazol-3-ylmethoxy)-benzamide]",,
< 8,< 8,"CC/C=C\CCCCCOc1ccc(F)c(C(N)=O)c1F [Example 86, 2,6-Difluoro-3-[(Z)-6-nonenyloxy]benzenecarboxamide]",,
< 8,< 8,"CCCCCC/C=C/COc1ccc(F)c(C(N)=O)c1 [Example 74, 2-Fluoro-5-[(E)-2-nonenyloxy]benzenecarboxamide]",,
> 64,> 64,"CCCCCCOc1cccc(C(N)=O)c1O [Example 166, 2-Hydroxy-3-Hexoxy-benzamide]",,
< 8,< 8,"NC(=O)c1c(F)ccc(OCc2nc(-c3ccc(OC(F)(F)F)cc3)cs2)c1F [Example 320, 2,6-Difluoro-3-[4-(4-trifluoromethoxy-phenyl)-thiazol-2-ylmethoxy]-benzamide]",,

# More lines, now with the values behind:
Compound,MIC [1] [µg/mL],MIC (Bacillus subtilis 168CA) [µg/mL],Staphylococcus aureus MICs Activity [1],Bacillus subtilis MICs Activity (Bacillus subtilis 168CA)
"Cl.NC(=O)c1c(F)ccc(OCc2nc(-c3ccc(N)cc3)no2)c1F [Example 251, 3-[3-(4-Aminophenyl)-1,2,4-oxadiazol-5-yl]methoxy-2,6-difluorobenzenecarboxamide hydrochloride salt]",16 to 64,16 to 64,,
"CCCCCCOc1nccc(C(N)=O)c1Cl [Example 174, 3-Chloro-2-(hexyloxy)isonicotinamide]",16 to 64,16 to 64,,
"NC(=O)c1c(F)ccc(OCc2nc(Cc3ccccc3)cs2)c1F [Example 137, 3-(4-Benzyl-thiazol-2-ylmethoxy)-2,6-difluoro benzamide]",,,B (‘B’ if the MIC was 16 to 64 micrograms/ml),B (‘B’ if the MIC was 16 to 64 micrograms/ml)
"Cc1nc(COc2ccc(F)c(C(N)=O)c2F)cs1 [Example 190, 2,6-Difluoro-3-[(2-methyl-1,3-thiazol-4-yl)methoxy]benzenecarboxamide]",16 to 64,16 to 64,,
"NC(=O)c1c(F)ccc(OCc2nc(Cc3ccccc3)no2)c1F [Example 266, 3-[(3-Benzyl-1,2,4-oxadiazol-5-yl)methoxy]-2,6-difluorobenzenecarboxamide]",16 to 64,16 to 64,,
"COc1ccc(-c2nc(COc3ccc(F)c(C(N)=O)c3F)sc2-c2ccc(N)cc2)cc1 [Example 285, 2,6-Difluoro-3-[5-(4-amino-phenyl)-4-(4-methoxy-phenyl)-thiazol-2-ylmethoxy]-benzamide]",< 8,< 8,,
"NC(=O)c1cccc(OCc2nc(-c3ccc(Cl)cc3)no2)c1F [Example 267, 3-[3-(4-Chloro-phenyl)-[1,2,4]oxadiazol-5-ylmethoxy]-2-fluoro-benzamide]",< 8,< 8,,
"NC(=O)c1c(F)ccc(OCc2noc(C=Cc3ccccc3)n2)c1F [Example 149, 2,6-Difluoro-3-(5-styryl-[1,2,4]oxadiazol-3-ylmethoxy)-benzamide]",16 to 64,< 8,,
"CCCCCCOc1ccc(F)c(C(N)=O)c1F [Example 81, 2,6-Difluoro-3-(hexyloxy)benzenecarboxamide]",< 8,< 8,,
"NC(=O)c1c(F)ccc(OCc2ccc3c(Br)cccc3n2)c1F [Example 151, 3-(5-Bromo-quinolin-2-ylmethoxy)-2,6-difluoro-benzamide]",16 to 64,< 8,,
"COC(=O)c1ccc2nc(COc3ccc(F)c(C(N)=O)c3F)sc2c1 [Example 321, 2-(3-Carbamoyl-2,4-difluoro-phenoxymethyl)-benzothiazole-6-carboxylic acid methyl ester]",< 8,< 8,,
"COc1ccc(-c2nc(COc3ccc(F)c(C(N)=O)c3F)sc2C#N)cc1 [Example 289, 3-[5-Cyano-4-(4-methoxy-phenyl)-thiazol-2-ylmethoxy]-2,6-difluoro-benzamide]",< 8,< 8,,
"NC(=O)c1c(F)ccc(OCc2cccc(Oc3ccccc3)c2)c1F [Example 162, 2,6-Difluoro-3-(3-phenoxy-benzyloxy)-benzamide]",< 8,< 8,,
"NC(=O)c1c(F)ccc(OCc2nc(-c3ccc(Cl)cc3)co2)c1F [Example 309, 3-[4-(4-Chloro-phenyl)-oxazol-2-ylmethoxy]-2,6-difluoro-benzamide]",< 8,< 8,,
"C=CCCCCCCOc1cccc(C(N)=O)c1 [Example 12, 3-(7-Octenyloxy)benzenecarboxamide]",< 8,16 to 64,,
"NC(=O)c1cccc(OCc2nc3cc(Cl)ccc3s2)c1F [Example 219, 3-[(5-Chloro-1,3-benzothiazol-2-yl)methoxy]-2-fluorobenzenecarboxamide]",< 8,< 8,,
"CC/C=C\CCCCCOc1cccc(C(N)=O)c1 [Example 61, 3-[(Z)-6-Nonenyloxy]benzenecarboxamide]",< 8,< 8,,
"CCCCCC/C=C\COc1cccc(C(N)=O)c1 [Example 47, 3-[(Z)-2-Nonenyloxy]benzenecarboxamide]",16 to 64,< 8,,

# Reference: patent US8088791B2, “Antibacterial agents” (Biots Scientific Management Pty Ltd, priority 2006, dated 2012)
